Laboratory results published in patent US20240398823A1, “DUAL INHIBITOR OF HISTONE DEACETYLASE 6 AND HEAT SHOCK PROTEIN 90” (TAIPEI MEDICAL UNIVERSITY, priority 2021, published 2024).

What was measured:
[1] = molecular target: T1, HDAC1 (Homo sapiens, UniProt Q13547); test: HDAC enzymes inhibition assay (Reaction Biology), HDAC1; type: biochemical; conditions: 10-dose, 3-fold dilution from 10 μM, single experiment
T1 construct: Reaction Biology Corporation (ran the assay as a service)

[2] = system: HCT116; test: MTT assay, survival of human colorectal cancer cells HCT116; type: cell-based; conditions: HCT-116, 48 h, mean ± SD, read-out: Human cell lines HCT116 IC50(μM ± SD)
Procedure: The effects on cell viability of the HSP90/HDAC6 dual inhibitors as described in Synthesis Examples (such as Compounds 63, 64, and 66 to 76) were evaluated. Cells were seeded in 96-well plates (5000 cells/well). The next day, the serially diluted drugs were added into the wells and incubated at 37° C. for 48 h. Cell viability was measured by the MTT assay and is expressed as percentages of surviving drug-treated cells relative to untreated control cells. The IC50 was calculated by non-linear regression analysis.
The inhibitory effect of the HSP90/HDAC6 dual inhibitors as described in Synthesis Examples on the survival rate of human colorectal cancer cells HCT116 is evaluated using MTT assay.

[3] = molecular target: T2, HSP90α (Homo sapiens, UniProt P07900); test: HSP90 inhibition assay, FITC-geldanamycin competition fluorescence polarization, HSP90α; type: binding; conditions: FITC-GM competition
T2 construct: Reaction Biology Corporation (ran the assay as a service)

[4] = molecular target: T3, HDAC3 (Homo sapiens, UniProt O15379); test: HDAC enzymes inhibition assay (Reaction Biology), HDAC3; type: biochemical; conditions: 10-dose, 3-fold dilution from 10 μM, single experiment
T3 construct: Reaction Biology Corporation (ran the assay as a service)

[5] = molecular target: T4, HSP90β (Homo sapiens, UniProt P08238); test: HSP90 inhibition assay, FITC-geldanamycin competition fluorescence polarization, HSP90β; type: binding; conditions: FITC-GM competition
T4 construct: Reaction Biology Corporation (ran the assay as a service)

[6] = molecular target: T5, HDAC6 (Homo sapiens, UniProt Q9UBN7); test: HDAC enzymes inhibition assay (Reaction Biology), HDAC6; type: biochemical; conditions: 10-dose, 3-fold dilution from 10 μM, single experiment
T5 construct: Reaction Biology Corporation (ran the assay as a service)
T5 sequence (Q9UBN7 1-1215): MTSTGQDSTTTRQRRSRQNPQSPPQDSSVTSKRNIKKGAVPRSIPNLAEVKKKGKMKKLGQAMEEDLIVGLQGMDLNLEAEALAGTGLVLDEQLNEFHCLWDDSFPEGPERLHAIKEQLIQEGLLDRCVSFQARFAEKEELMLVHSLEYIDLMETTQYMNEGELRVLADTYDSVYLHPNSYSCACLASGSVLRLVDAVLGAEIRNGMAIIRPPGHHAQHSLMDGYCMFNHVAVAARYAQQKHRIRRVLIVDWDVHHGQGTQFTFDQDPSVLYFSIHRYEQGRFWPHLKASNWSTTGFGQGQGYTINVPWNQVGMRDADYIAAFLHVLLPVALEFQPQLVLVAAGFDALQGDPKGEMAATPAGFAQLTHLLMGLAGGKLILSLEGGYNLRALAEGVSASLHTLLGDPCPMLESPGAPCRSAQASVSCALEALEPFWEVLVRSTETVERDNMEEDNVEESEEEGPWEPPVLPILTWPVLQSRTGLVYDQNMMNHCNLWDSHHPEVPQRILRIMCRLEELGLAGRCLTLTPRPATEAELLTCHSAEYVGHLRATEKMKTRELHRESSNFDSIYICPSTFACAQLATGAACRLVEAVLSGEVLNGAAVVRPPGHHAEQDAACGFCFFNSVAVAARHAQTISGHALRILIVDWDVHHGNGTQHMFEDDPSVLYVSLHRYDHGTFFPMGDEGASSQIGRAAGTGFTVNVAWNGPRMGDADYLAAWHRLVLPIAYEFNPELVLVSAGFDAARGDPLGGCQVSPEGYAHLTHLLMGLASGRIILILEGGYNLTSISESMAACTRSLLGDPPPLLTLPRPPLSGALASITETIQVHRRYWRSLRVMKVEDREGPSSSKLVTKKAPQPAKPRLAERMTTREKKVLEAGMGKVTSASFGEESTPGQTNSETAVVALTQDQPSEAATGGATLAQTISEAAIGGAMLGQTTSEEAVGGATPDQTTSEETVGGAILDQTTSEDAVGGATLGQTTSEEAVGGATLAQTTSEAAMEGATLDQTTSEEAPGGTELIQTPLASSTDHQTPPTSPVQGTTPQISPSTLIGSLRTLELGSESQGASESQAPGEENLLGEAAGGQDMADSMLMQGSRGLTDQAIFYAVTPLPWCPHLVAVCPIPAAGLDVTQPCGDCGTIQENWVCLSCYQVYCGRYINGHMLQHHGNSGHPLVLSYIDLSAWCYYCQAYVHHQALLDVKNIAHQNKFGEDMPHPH

T4 sequence (P08238 whole entry): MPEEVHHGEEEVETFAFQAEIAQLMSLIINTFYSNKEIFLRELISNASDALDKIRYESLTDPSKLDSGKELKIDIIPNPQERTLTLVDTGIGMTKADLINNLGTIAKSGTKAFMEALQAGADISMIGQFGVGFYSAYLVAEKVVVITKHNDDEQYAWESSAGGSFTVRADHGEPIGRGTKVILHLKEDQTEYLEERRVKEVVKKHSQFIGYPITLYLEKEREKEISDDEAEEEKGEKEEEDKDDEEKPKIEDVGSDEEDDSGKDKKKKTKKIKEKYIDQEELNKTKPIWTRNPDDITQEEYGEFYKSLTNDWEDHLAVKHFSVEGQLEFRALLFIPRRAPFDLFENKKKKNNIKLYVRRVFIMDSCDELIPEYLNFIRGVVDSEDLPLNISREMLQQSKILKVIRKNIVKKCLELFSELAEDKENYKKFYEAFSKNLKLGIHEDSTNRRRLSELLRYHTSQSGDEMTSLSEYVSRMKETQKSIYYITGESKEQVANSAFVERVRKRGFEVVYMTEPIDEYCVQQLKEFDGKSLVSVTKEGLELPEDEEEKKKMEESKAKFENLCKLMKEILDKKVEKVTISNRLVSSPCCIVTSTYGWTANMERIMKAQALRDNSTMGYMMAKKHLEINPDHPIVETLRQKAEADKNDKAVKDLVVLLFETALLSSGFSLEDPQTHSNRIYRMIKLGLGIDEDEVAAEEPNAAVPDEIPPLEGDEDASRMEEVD
T1 sequence (Q13547 whole entry): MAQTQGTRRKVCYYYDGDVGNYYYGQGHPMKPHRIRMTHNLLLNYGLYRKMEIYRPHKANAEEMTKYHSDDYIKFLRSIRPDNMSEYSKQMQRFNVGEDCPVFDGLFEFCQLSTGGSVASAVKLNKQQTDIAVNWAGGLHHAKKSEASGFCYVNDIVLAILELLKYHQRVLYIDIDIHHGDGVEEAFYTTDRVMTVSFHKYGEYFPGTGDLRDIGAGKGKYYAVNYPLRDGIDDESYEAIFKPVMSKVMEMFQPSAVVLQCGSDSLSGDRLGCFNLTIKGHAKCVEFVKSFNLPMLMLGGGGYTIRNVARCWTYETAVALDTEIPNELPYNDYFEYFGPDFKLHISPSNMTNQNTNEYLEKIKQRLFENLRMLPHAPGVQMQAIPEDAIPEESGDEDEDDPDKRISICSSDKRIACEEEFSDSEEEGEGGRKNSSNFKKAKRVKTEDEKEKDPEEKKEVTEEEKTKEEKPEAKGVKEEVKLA
T3 sequence (O15379 whole entry): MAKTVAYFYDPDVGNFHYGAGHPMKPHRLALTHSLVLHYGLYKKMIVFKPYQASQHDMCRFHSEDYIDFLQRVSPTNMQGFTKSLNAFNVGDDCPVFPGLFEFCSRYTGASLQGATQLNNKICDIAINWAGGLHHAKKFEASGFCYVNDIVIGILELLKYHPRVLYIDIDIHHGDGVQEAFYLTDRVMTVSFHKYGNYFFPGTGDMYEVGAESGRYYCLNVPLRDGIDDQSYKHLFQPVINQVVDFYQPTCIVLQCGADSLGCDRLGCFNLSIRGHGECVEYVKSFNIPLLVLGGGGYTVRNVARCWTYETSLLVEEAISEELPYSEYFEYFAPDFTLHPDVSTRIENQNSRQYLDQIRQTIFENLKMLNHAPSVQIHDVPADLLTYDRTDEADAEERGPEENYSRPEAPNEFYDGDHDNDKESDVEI
T3 sequence (Q9Y618 395-489 partner limits assumed): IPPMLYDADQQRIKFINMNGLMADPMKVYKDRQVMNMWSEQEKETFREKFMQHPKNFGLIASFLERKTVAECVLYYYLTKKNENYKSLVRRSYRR

Row | IC50 [1] | IC50 [3] | IC50 [4] | IC50 [5] | IC50 [6] | Structure (SMILES) | IC50 [2]
1 | 961 nM | 35 nM | 2840 nM | 51.8 nM | 6.54 nM | CC(C)c1cc(C(=O)N(Cc2ccc(C(=O)NO)cc2)c2ccc(O)cc2)c(O)cc1O [Compound 76, 2,4-Dihydroxy-N-(4-hydroxycarbamoyl-benzyl)-N-(4-hydroxy-phenyl)-5-isopropyl-benzamide] | 0.83 ± 0.01 µM
2 | 1070 nM | 32.2 nM | 2190 nM | 117 nM | 13.7 nM | CC(C)c1cc(C(=O)N(Cc2ccc(C(=O)NO)cc2)c2ccc(N(C)C)cc2)c(O)cc1O [Compound 72, N-(4-(dimethylamino)phenyl)-2,4-dihydroxy-N-(4-(hydroxycarbamoyl)benzyl)-5-isopropylbenzamide] | 0.9 ± 0.18 µM
3 | 1290 nM | 91.4 nM | 2170 nM | 272 nM | 9.17 nM | CC(C)c1cc(C(=O)N(Cc2ccc(C(=O)NO)cc2)c2ccc(I)cc2)c(O)cc1O [Compound 69, 2,4-dihydroxy-N-(4-(hydroxycarbamoyl)benzyl)-N-(4-iodophenyl)-5-isopropylbenzamide] | 1.16 ± 0.01 µM
4 | 173 nM | 36.7 nM | 645 nM | 60.5 nM | 5.88 nM | CC(C)c1cc(C(=O)N(Cc2ccc(C(=O)NO)cc2)c2ccc(N3CCN(C)CC3)cc2)c(O)cc1O [Compound 73, 2,4-dihydroxy-N-(4-(hydroxycarbamoyl)benzyl)-5-isopropyl-N-(4-(4-methylpiperazin-1-yl)phenyl)benzamide] | 1.25 ± 0.13 µM
5 | 1230 nM | 98.7 nM | 2700 nM | 373 nM | 70.5 nM | CC(C)c1cc(C(=O)N(Cc2ccc(C(=O)NO)cc2)c2ccc(N3CCCCC3)cc2)c(O)cc1O [Compound 74, 2,4-dihydroxy-N-(4-(hydroxycarbamoyl)benzyl)-5-isopropyl-N-(4-(piperidin-1-yl)phenyl)benzamide] | 4.83 ± 0.47 µM
6 | 275 nM | 16.3 nM | 691 nM | 18.7 nM | 16 nM | CC(C)c1cc(C(=O)N(Cc2ccc(C(=O)NO)cc2)c2ccc(N3CCOCC3)cc2)c(O)cc1O [Compound 71, 2,4-dihydroxy-N-(4-(hydroxycarbamoyl)benzyl)-5-isopropyl-N-(4-morpholinophenyl)benzamide] | 0.47 ± 0.02 µM
7 | 1760 nM | 25.2 nM | 3620 nM | 38.8 nM | 5.93 nM | CC(C)c1cc(C(=O)N(C)Cc2ccc(C(=O)NO)cc2)c(O)cc1O [Compound 63, 2,4-dihydroxy-N-(4-(hydroxycarbamoyl)benzyl)-5-isopropyl-N-methylbenzamide] | 1.09 ± 0.08 µM
8 | 1120 nM | 39.9 nM | 2200 nM | 95.6 nM | 12.9 nM | CC(C)c1cc(C(=O)N(Cc2ccc(C(=O)NO)cc2)c2ccc3c(c2)OCO3)c(O)cc1O [Compound 70, N-(benzo[d][1,3]dioxol-5-yl)-2,4-dihydroxy-N-(4-(hydroxycarbamoyl)benzyl)-5-isopropylbenzamide] | 0.25 ± 0.04 µM
9 | 1810 nM | 59.9 nM | 3030 nM | 159 nM | 17.2 nM | CC(C)c1cc(C(=O)N(Cc2ccc(C(=O)NO)cc2)c2ccc(Cl)cc2)c(O)cc1O [Compound 68, N-(4-chlorophenyl)-2,4-dihydroxy-N-(4-(hydroxycarbamoyl)benzyl)-5-isopropylbenzamide] | 5.28 ± 0.92 µM
10 | 3680 nM | 54.5 nM | 4740 nM | 200 nM | 23.9 nM | CC(C)c1cc(C(=O)N(Cc2ccc(C(=O)NO)cc2)c2ccccc2)c(O)cc1O [Compound 66, 2,4-dihydroxy-N-(4-(hydroxycarbamoyl)benzyl)-5-isopropyl-N-phenylbenzamide] | 0.9 ± 0.09 µM
11 | 5230 nM | 93.9 nM | > 10000 nM | 190 nM | 23 nM | CCN(Cc1ccc(C(=O)NO)cc1)C(=O)c1cc(C(C)C)c(O)cc1O [Compound 64, N-ethyl-2,4-dihydroxy-N-(4-(hydroxycarbamoyl)benzyl)-5-isopropylbenzamide] | 3.69 ± 0.09 µM
12 | 1690 nM | 40.8 nM | 3140 nM | 103 nM | 22.9 nM | CC(C)c1cc(C(=O)N(Cc2ccc(C(=O)NO)cc2)c2ccc(F)cc2)c(O)cc1O [Compound 67, N-(4-fluorophenyl)-2,4-dihydroxy-N-(4-(hydroxycarbamoyl)benzyl)-5-isopropylbenzamide] | 4.61 ± 0.11 µM
